Measurements reported in patent publication US11945822B2, “Pyrazolo-triazine and/or pyrazolo-pxrimidine derivatives as selective inhibitor of cyclin dependent kinase” (QURIENT CO., LTD., priority 2018, dated 2024).

Experiments:
MOLT-4 = experiment: Cellular MOLT-4 viability assay (CellTiter-Glo, 72 hours); assay type: cell-based; settings: Homo sapiens, MOLT4 viability assay
Summary of the method: (§1)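 CellTiter-Glo luminescence read in duplicate after 72 h compound exposure (37 °C, 5% CO2); DMSO-only control, final DMSO under 0.1%.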

CDK1/Cyclin B = target: T1, CDK1/Cyclin B (Homo sapiens, UniProt P06493); experiment: Enzymatic assay for CDK1 (FRET based LANCE Ultra kinase assay); assay type: biochemical; settings: read-out: CDK1 enzymatic activity (IC50 range)
T1 construct: purchased Invitrogen PR4768C
T1 sequence (P06493 whole entry): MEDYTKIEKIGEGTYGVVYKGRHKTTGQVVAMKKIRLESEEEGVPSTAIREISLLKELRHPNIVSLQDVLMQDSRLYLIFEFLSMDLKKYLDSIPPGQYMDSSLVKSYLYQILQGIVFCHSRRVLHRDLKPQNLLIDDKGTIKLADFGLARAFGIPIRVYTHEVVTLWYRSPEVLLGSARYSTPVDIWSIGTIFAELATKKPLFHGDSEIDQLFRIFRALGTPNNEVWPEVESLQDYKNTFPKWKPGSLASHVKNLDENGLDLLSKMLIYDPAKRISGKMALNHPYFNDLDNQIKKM
T1 sequence (P14635 whole entry partner): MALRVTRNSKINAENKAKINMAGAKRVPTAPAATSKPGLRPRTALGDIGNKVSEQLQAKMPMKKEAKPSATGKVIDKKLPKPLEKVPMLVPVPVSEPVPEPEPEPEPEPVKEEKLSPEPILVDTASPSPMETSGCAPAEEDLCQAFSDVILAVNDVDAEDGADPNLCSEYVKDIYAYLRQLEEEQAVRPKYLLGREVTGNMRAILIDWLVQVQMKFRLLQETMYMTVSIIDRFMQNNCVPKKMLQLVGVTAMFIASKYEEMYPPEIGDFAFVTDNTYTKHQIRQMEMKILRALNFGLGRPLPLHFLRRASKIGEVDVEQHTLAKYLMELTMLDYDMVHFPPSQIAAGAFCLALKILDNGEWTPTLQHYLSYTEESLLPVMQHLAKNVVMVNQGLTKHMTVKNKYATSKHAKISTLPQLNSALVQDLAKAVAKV
Summary of the method: (§2)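 TR-FRET (LANCE Ultra) kinase assay at ATP Km, ULight-MBP peptide substrate (68 nM), 8-dose 4-fold compound series in DMSO. Enzymes: […]; 60 min at 23° C., stopped with EDTA plus Eu-anti-phospho-MBP antibody, read 665/615 nm after 60 min.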

CDK2/Cyclin A = target: T2, CDK2/Cyclin A (Homo sapiens, UniProt P24941); experiment: Enzymatic assay for CDK2 (FRET based LANCE Ultra kinase assay); assay type: biochemical; settings: read-out: CDK2 enzymatic activity (IC50 range)
T2 construct: purchased Invitrogen PV6290
Summary of the method: as §2

H460 = experiment: Cellular H460 viability assay (CellTiter-Glo, 72 hours); assay type: cell-based; settings: Homo sapiens, NCI-H460
Summary of the method: as §1

CDK7/Cyclin H/MNAT1 = target: T3, CDK7/Cyclin H/MNAT1 (Homo sapiens, UniProt P50613); experiment: Enzymatic assay for CDK7 (FRET based LANCE Ultra kinase assay); assay type: biochemical; settings: for IC50: read-out: CDK7 enzymatic activity (IC50 range)
T3 construct: purchased Invitrogen PR6749B
T3 sequence (P50613 whole entry): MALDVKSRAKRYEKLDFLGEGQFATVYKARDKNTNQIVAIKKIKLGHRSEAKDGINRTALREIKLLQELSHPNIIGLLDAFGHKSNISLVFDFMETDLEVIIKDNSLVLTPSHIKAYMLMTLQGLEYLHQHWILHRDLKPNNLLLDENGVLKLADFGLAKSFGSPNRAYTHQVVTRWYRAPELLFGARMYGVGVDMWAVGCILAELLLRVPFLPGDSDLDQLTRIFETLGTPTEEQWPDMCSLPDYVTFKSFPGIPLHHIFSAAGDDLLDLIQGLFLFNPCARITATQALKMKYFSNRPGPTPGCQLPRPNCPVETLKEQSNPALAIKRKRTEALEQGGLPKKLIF
T3 sequence (P51946 whole entry partner): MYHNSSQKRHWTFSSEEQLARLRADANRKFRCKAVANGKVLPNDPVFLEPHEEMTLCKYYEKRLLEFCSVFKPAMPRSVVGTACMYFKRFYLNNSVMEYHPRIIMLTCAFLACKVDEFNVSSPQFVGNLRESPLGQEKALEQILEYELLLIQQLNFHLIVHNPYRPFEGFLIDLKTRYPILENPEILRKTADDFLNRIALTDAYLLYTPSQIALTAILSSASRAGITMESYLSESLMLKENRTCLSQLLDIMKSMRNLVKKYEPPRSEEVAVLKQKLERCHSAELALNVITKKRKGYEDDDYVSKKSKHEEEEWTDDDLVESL
T3 sequence (P51948 whole entry partner): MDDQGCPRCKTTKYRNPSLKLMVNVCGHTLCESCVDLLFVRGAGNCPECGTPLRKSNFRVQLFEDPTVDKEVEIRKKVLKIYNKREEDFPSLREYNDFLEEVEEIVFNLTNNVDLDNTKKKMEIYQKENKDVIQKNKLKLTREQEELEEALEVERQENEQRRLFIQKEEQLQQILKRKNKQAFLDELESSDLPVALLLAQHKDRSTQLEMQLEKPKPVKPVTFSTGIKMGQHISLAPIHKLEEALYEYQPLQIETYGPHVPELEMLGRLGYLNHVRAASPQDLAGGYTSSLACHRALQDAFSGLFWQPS
Summary of the method: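 Inhibition was measured at Km ATP by time-resolved FRET between a Eu anti-phospho antibody and a phosphorylated ULight peptide. The enzyme was the purified CDK7/cyclin complex, and data were curve-fitted.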

RPMI-8226 = experiment: Cellular RPMI-8226 viability assay (CellTiter-Glo, 72 hours); assay type: cell-based; settings: Homo sapiens
Experimental: All cell lines were routinely tested for mycoplasma.
The effect of the CDK7 inhibitor to inhibit the growth of target cancer cells was evaluated through the 72 hours time period of viability assay. Briefly, the candidate cell line ware plated in 96 well plate at the following density of cells respectively. […] DMSO solvent without compound served as a control and final DMSO concentration less than 0.1%. After 72 hours of incubation at 37° C., 5% CO2 incubator, cells were analyzed for the viability using the CellTiter-Glo Luminescent Cell Viability Assay (Promega, Cat #G7570). All viability assays were performed in duplicate and Luminescence was read using an Envision (Perkin Elmer, USA). Data was analyzed using XLfit software.

CDK5/p25 = target: T4, CDK5/p25 (Homo sapiens, UniProt Q00535); experiment: Enzymatic assay for CDK5 (FRET based LANCE Ultra kinase assay); assay type: biochemical; settings: read-out: CDK5 enzymatic activity (IC50 range)
T4 construct: purchased Invitrogen PR8543B
T4 sequence (Q00535 whole entry): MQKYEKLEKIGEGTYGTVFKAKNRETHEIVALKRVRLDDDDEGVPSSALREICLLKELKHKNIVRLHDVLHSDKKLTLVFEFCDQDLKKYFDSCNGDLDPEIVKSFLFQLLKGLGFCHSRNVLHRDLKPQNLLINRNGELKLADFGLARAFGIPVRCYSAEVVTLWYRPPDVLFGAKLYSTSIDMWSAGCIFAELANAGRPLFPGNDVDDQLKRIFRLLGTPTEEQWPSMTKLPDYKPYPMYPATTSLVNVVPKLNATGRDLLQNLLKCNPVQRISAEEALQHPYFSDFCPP
T4 sequence (Q15078 99-307 partner limits assumed): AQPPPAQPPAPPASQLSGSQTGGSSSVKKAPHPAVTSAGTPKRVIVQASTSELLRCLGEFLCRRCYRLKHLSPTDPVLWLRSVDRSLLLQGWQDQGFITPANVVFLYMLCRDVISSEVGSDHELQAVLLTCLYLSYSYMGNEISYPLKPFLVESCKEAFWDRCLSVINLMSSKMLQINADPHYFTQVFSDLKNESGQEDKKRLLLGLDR
Summary of the method: as §2

MV4-11 = experiment: Cellular MV4-11 viability assay (CellTiter-Glo, 72 hours); assay type: cell-based; settings: Homo sapiens
Summary of the method: as §1

Row | Compound | IC50 (MOLT-4) [µM] | IC50 (CDK1/Cyclin B) [µM] | IC50 (CDK2/Cyclin A) [µM] | IC50 (H460) [µM] | CDK1/CDK7: Selectivity of CDK7 inhibition over CDK1 inhibition (CDK7/Cyclin H/MNAT1) | CDK2/CDK7: Selectivity of CDK7 inhibition over CDK2 inhibition (CDK7/Cyclin H/MNAT1) | CDK5/CDK7: Selectivity of CDK7 inhibition over CDK5 inhibition (CDK7/Cyclin H/MNAT1) | IC50 (CDK7/Cyclin H/MNAT1) [µM] | IC50 (RPMI-8226) [µM] | IC50 (CDK5/p25) [µM] | IC50 (MV4-11) [µM]
1 | CC(C)c1cnn2c(NCc3cccc4c3N(C)C(=O)CC4)nc(N3CCC(N)CC3)nc12 [Compound 69] | 1 to 10 | 0.1 to 1 | < 0.1 | < 1 | B (B=less than 200 fold, but greater than 20 fold) | B (B=less than 200 fold, but greater than 20 fold) | C (C=less than 20 fold) | < 0.1 | < 1 | < 0.1 | 
2 | CC(C)c1cnn2c(NCc3ccccc3-c3cc4cccc(F)c4[nH]3)nc(N3CCC(N)CC3)nc12 [Compound 113] | < 1 |  |  | < 1 |  |  |  |  | < 1 |  | < 1
3 | CC(C)c1cnn2c(NCc3ccccc3-c3nccc4cc(NC(=O)CCCN(C)C)ccc34)nc(N3CCC(N)CC3)nc12 [Compound 92] | > 10 | > 1 | > 1 |  | A (A=greater than 200 fold) | A (A=greater than 200 fold) | A (A=greater than 200 fold) | < 0.1 | 1 to 10 | > 1 | < 1
4 | CC(C)c1cnn2c(NCc3ccccc3-c3nc4ccccc4n3C)nc(N3CCC(N)CC3)nc12 [Compound 96] | 1 to 10 | > 1 | > 1 | < 1 | A (A=greater than 200 fold) | A (A=greater than 200 fold) | B (B=less than 200 fold, but greater than 20 fold) | < 0.1 | < 1 | 0.1 to 1 | 
5 | CC(C)c1cnn2c(NCc3ccccc3N3CCCC3)nc(N3CCC(N)CC3)nc12 [Compound 54] | 1 to 10 | > 1 | 0.1 to 1 | < 1 | B (B=less than 200 fold, but greater than 20 fold) | B (B=less than 200 fold, but greater than 20 fold) | C (C=less than 20 fold) | < 0.1 | 1 to 10 | 0.1 to 1 | 
6 | CC(C)c1cnn2c(NCc3ccccc3-c3cccs3)nc(N3CCC(N)CC3)nc12 [Compound 44] | 1 to 10 | 0.1 to 1 | 0.1 to 1 | < 1 | B (B=less than 200 fold, but greater than 20 fold) | B (B=less than 200 fold, but greater than 20 fold) | B (B=less than 200 fold, but greater than 20 fold) | < 0.1 | < 1 | < 0.1 | 
7 | CC(C)c1cnn2c(NCc3ccccc3Oc3ccccc3)nc(N3CCC(N)CC3)nc12 [Compound 56] | 1 to 10 | > 1 | > 1 | < 1 | B (B=less than 200 fold, but greater than 20 fold) | B (B=less than 200 fold, but greater than 20 fold) | C (C=less than 20 fold) | < 0.1 | 1 to 10 | 0.1 to 1 | 
8 | CC(C)c1cnn2c(NCc3ccccc3Nc3ccccc3)nc(N3CCC(N)CC3)nc12 [Compound 61] | 1 to 10 | > 1 | 0.1 to 1 | < 1 | B (B=less than 200 fold, but greater than 20 fold) | B (B=less than 200 fold, but greater than 20 fold) | C (C=less than 20 fold) | < 0.1 | 1 to 10 | 0.1 to 1 | 
9 | CC(C)c1cnn2c(NCc3ccccc3-n3cc4cc(-c5ccccc5)ccc4n3)nc(N3CCC(N)CC3)nc12 [Compound 101] | 1 to 10 |  |  | 1 to 10 |  |  |  |  | 1 to 10 |  | 
10 | CC(C)c1cnn2c(NCc3ccccc3-c3cc4ccccc4[nH]3)nc(OC3CCN(C)CC3)nc12 [Compound 115] | 1 to 10 | > 1 | 0.1 to 1 |  | A (A=greater than 200 fold) | B (B=less than 200 fold, but greater than 20 fold) | B (B=less than 200 fold, but greater than 20 fold) | < 0.1 | 1 to 10 | 0.1 to 1 | < 1
11 | CC(C)c1cnn2c(NCc3cccc4ccc(-n5cccn5)nc34)nc(N3CCC(N)CC3)nc12 [Compound 59] | 1 to 10 |  |  | 1 to 10 |  |  |  |  | 1 to 10 |  | 
12 | CC(C)c1cnn2c(NCc3ccccc3-c3cc4ccccc4[nH]3)nc(NC3CCOCC3)nc12 [Compound 114] | 1 to 10 | > 1 | > 1 |  | A (A=greater than 200 fold) | B (B=less than 200 fold, but greater than 20 fold) | B (B=less than 200 fold, but greater than 20 fold) | 0.1 to 1 | 1 to 10 | > 1 | 
13 | CC(C)c1cnn2c(NCc3ccccc3NC(=O)c3ccccc3)nc(N3CCC(N)CC3)nc12 [Compound 87] | 1 to 10 | > 1 | > 1 |  | A (A=greater than 200 fold) | A (A=greater than 200 fold) | B (B=less than 200 fold, but greater than 20 fold) | < 0.1 | < 1 | 0.1 to 1 | 
14 | CC(=O)NC1CCN(c2nc(NCc3ccccc3-c3cc4ccccc4[nH]3)n3ncc(C(C)C)c3n2)CC1 [Compound 111] | 1 to 10 | > 1 | > 1 |  | B (B=less than 200 fold, but greater than 20 fold) | B (B=less than 200 fold, but greater than 20 fold) | C (C=less than 20 fold) | < 0.1 | 1 to 10 | > 1 | 
15 | CC(C)c1cnn2c(NCc3ccccc3N(C)c3ccccc3)nc(N3CCC(N)CC3)nc12 [Compound 63] | > 10 | 0.1 to 1 | 0.1 to 1 | < 1 | B (B=less than 200 fold, but greater than 20 fold) | B (B=less than 200 fold, but greater than 20 fold) | B (B=less than 200 fold, but greater than 20 fold) | < 0.1 | 1 to 10 | 0.1 to 1 | 
16 | CC(C)c1cnn2c(NCc3cccc4ccc(NC(=O)CCCN(C)C)nc34)nc(N3CCC(N)CC3)nc12 [Compound 95] | 1 to 10 | > 1 | 0.1 to 1 |  | A (A=greater than 200 fold) | A (A=greater than 200 fold) | B (B=less than 200 fold, but greater than 20 fold) | < 0.1 | < 1 | 0.1 to 1 | 
17 | CC(C)c1cnn2c(NCc3ccccc3N3CCc4ccccc43)nc(N3CCC(N)CC3)nc12 [Compound 76] | 1 to 10 | > 1 | > 1 | < 1 | A (A=greater than 200 fold) | B (B=less than 200 fold, but greater than 20 fold) | B (B=less than 200 fold, but greater than 20 fold) | < 0.1 | < 1 | 0.1 to 1 | 
18 | CC(C)c1cnn2c(NCc3ccccc3-n3cc4cc(Br)ccc4n3)nc(N3CCC(N)CC3)nc12 [Compound 100] | 1 to 10 |  |  | < 1 |  |  |  |  | 1 to 10 |  | 
